In patent US20250090498A1, “TREATMENT OF PRIMARY CTLA-4 CHECKPOINT RELATED IMMUNODEFICIENCIES” (ADIENNE PHARMA & BIOTECH SA, priority 2023, published 2025):
Where two headings read alike, the source gives them in different places.

How the values were obtained:
[1] = test system: AhR; test: AhR luciferase reporter in mouse hepatoma cells H1L6.1c3; type: cell-based; design: dose or concentration left out as unconfirmed; settings: higher RLU at 2 h lasting until 24h
Description: The ability of 1ME3CA was comparatively assessed here in mouse hepatoma cells (H1L6.1c3), kindly provided by Allison K. Ehrlich (Meyer Hall, University of California, Davis, United States), containing the stably integrated AhR xenobiotic responsive element driven by a firefly luciferase reporter plasmid, pGudLuc6.167. Cells were plated in MEMA (Gibco), supplemented with 10% fetal serum bovine and 1% penicillin-streptomycin solution, in 24-well plate and stimulated with different concentrations of either 3-IAld or 1ME3CA. Luciferase activity, calculated as relative light units (RLU) per microgram of protein and expressed as fold induction, was carried at 2 or 24 hours of exposure.

[2] = molecular target: T1, AhR (Homo sapiens, UniProt P35869); test: AhR target gene expression by RT-PCR in A549, Calu-3, CaCo-2 and HepG32 cell lines; type: cell-based; design: endogenous in cells; host or cells: HepG2, A549, Calu-3, CaCo-2; settings: for AhR activity at the higher 1000 M concentration: increased in CaCo-2 and HepG32 but not on Calu-3 cells
T1 sequence (P35869 11-848): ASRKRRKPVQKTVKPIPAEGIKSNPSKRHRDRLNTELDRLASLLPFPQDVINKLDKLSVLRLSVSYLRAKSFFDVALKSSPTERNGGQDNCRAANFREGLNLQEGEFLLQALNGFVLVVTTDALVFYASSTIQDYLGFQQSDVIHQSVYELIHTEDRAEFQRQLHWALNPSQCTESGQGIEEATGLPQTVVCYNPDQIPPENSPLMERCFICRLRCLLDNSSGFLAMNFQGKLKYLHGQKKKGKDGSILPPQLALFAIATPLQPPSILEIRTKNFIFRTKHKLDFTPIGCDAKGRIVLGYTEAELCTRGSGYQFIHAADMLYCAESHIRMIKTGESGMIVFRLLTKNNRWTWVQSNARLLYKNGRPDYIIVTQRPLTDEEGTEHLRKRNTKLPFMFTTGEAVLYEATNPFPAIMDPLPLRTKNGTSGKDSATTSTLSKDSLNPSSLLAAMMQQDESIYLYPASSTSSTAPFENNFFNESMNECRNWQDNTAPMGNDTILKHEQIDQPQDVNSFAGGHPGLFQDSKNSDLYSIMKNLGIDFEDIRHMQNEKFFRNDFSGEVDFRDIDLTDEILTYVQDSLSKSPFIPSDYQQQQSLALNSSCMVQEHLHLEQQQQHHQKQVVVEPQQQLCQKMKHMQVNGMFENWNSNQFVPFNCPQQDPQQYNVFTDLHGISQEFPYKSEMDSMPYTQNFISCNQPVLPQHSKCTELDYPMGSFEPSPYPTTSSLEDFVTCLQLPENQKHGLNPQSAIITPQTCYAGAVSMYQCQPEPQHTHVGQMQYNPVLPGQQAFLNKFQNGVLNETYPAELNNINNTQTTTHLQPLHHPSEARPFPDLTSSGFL
Description: ITE and FICZ are reference AhR agonists. Assays were performed at 4 hours post-incubation.
To further characterize the AhR agonistic potential of 1ME3CA, the ability of 3-IAld and 1ME3CA to activate target genes downstream AhR (Cyp1a1, Cyp2a1 and AhRR) in the A549 cell line derived from adenocarcinomic human alveolar basal epithelial cells, in the Calu-3 cell line derived from adenocarcinomic human bronchial epithelial cells, in the CaCo-2 cell line derived from human colon carcinoma and in the […] human liver cancer cell line was comparatively assessed. Cells were exposed to 1, 10, 100 and 1000 µM of either molecules or DMSO for 4 hours or overnight (on) at 37° C. before being assessed for the expression of the above-mentioned genes by RT-PCR.

[3] = test system: immune-mediated colitis; test: immune-mediated colitis in NSG mice infused with hPBMCs and treated with anti-CTLA-4 mAb; type: in vivo
Description: Humanized immunodeficient NSG mice were injected with human peripheral blood mononuclear cells from healthy donors and treated with anti-CTLA-4 monoclonal antibody. NOD.Cg-Prkdcscid Il2rgtm1Wjl/SzJ (NSG) mice, 8-10 weeks old, were injected intraperitoneally with human peripheral blood mononuclear cells (107) freshly isolated from healthy donors and treated intraperitoneally with 100 μg of anti-CTLA-4 mAb or human IgG as antibody control at days 0, 4, 8, 12 and 16.
3-IAld (18 mg/kg) was administered intragastrically every other day starting the day of cell infusion. Mice were monitored daily for overall mortality and body weight loss and sacrificed on day 21.

[4] = test system: disease progression in IL-10-deficient mice; test: disease progression in 16 wk-old IL-10-deficient mice, 3-IAld for 4 weeks then 1% DSS; type: in vivo, Il10−/− mice; settings: 3-IAld every other day for 4 weeks
Description: Sixteen week-old IL-10-deficient mice (Il10^−/−) were treated with 3-IAld every other day for 4 weeks, as illustrated in FIG. 10A. As a mimic of disease exacerbation, mice received 1% DSS after 3-IAld treatment and subsequently evaluated for weight change, intestinal pathology and epithelial integrity.

[5] = test system: AhR; settings: cited from earlier work
[6] = cited from earlier work
[7] = 3-IAld 18 mg/kg intragastrically every other day, 21 days

For `Cn1cc(C(=O)O)c2ccccc21` [1-methylindole-3-carboxylic acid, 1-Methyl-1H-indole-3-carboxylic acid], the “induction of luciferase activity (RLU, fold induction) versus 3-IAld” value [1] was “more potent inducer of luciferase activity”, the “AhR agonistic activity versus 3-IAld (overall)” value [2] was “comparable, if not superior” and the “expression of the IDO1 and IDO2 genes” value [2] was “No activity was observed”. The “expression of AhR-dependent Cyp1a1, Cyp2a1 and AhRR genes” value ([2]; cell lines tested, 4 hours or overnight) was “promoted the expression”, the “AhR activity at the higher 1000 M concentration” value [2] was “inconsistent results” and the “extent of gene expression versus reference AhR ligands ITE or FICZ and 3-IAld” value ([2]; similar concentration, i.e. 100 μM) was “comparable, or even superior”.
For `O=Cc1c[nH]c2ccccc12` [3-IAld, 1H-indole-3-carbaldehyde], the “immune-mediated colitis (overall)” value ([3]; 3-IAld 18 mg/kg) was “protects mice from immune-mediated colitis”, the survival [3, 7] was “increased” and the weight loss [3, 7] was “reduced”. For the same molecule, the histology score ([3]; 3-IAld 18 mg/kg, colon, day 21) was “improved”, the inflammatory histopathology ([3]; 3-IAld 18 mg/kg, colon, day 21) was “improved” and the “barrier function (expression of ZO-1)” value ([3]; 3-IAld 18 mg/kg, day 21) was “restored”. The “inflammatory cytokine gene expression” value ([3]; 3-IAld 18 mg/kg, day 21) was “decreased”, the colon inflammatory histopathology [4] was “slow down” and the “disease progression (overall)” value [4] was “slows disease progression”. The “loss of body weight” value [4] was “slow down”, the “epithelial integrity and renewal” value ([4]; PAS and Ki-67) was “maintain” and the “dose range inducing luciferase activity” value ([5]; as printed in b215) was 0.1 to 100 mM. For the same molecule, the “dose range inducing luciferase activity” value ([5]; as printed in b238) was 0.0001 to 0.1 mM, the “acidity (based on its pKa)” value [6] was “very weakly acidic” and the solubility in water [6] was “slightly soluble”. The “expression of the IDO1 and IDO2 genes” value [2] was “No activity was observed” and the “AhR activity at the higher 1000 M concentration” value [2] was “inconsistent results”.
